Data reported in ChEMBL document CHEMBL1909046, “DrugMatrix in vitro pharmacology data”.

Tests used:
[1] = target: T1, Androgen receptor (Rattus norvegicus, UniProt P15207)
T1 sequence (P15207 whole entry): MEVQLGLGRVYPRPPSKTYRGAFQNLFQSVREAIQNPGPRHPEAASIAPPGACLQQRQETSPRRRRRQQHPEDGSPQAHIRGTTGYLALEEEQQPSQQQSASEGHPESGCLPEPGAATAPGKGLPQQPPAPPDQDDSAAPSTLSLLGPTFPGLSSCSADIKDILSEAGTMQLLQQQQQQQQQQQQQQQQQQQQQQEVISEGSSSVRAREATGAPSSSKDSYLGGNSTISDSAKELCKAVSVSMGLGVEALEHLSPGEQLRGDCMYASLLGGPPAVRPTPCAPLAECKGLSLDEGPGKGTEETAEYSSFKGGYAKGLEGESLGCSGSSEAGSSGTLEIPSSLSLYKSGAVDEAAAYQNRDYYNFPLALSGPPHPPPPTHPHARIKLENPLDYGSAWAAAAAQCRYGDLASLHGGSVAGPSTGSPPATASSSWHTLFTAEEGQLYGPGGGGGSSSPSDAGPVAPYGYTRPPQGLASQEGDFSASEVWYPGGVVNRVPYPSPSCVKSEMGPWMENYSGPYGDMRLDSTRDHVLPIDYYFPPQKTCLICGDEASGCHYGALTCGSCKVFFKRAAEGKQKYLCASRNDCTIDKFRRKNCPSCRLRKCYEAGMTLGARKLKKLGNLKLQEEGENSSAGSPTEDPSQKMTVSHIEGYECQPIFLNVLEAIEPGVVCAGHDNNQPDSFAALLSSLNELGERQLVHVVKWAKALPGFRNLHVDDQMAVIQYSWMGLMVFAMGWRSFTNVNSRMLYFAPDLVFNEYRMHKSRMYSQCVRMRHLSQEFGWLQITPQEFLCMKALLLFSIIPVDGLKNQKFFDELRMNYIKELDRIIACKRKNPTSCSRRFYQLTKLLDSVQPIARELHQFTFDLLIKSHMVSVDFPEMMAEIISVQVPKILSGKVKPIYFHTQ

[2] = target: Cytochrome P450 2D6 (Homo sapiens, UniProt P10635)
Sequence of Cytochrome P450 2D6 (P10635 whole entry): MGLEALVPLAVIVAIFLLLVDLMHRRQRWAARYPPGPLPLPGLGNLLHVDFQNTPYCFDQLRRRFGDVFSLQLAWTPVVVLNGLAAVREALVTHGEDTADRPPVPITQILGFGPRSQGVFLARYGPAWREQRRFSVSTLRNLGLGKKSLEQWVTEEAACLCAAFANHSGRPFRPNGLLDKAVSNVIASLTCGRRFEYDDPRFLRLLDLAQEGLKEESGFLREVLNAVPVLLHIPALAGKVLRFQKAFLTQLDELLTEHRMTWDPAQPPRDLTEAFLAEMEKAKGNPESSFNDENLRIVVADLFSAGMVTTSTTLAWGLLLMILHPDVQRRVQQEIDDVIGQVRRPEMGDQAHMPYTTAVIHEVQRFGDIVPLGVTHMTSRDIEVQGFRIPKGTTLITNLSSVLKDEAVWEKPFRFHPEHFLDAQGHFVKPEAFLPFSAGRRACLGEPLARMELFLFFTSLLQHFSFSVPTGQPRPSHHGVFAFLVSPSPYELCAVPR

[3] = target: T2, Cytochrome P450 1A2 (Homo sapiens, UniProt P05177)
T2 sequence (P05177 whole entry): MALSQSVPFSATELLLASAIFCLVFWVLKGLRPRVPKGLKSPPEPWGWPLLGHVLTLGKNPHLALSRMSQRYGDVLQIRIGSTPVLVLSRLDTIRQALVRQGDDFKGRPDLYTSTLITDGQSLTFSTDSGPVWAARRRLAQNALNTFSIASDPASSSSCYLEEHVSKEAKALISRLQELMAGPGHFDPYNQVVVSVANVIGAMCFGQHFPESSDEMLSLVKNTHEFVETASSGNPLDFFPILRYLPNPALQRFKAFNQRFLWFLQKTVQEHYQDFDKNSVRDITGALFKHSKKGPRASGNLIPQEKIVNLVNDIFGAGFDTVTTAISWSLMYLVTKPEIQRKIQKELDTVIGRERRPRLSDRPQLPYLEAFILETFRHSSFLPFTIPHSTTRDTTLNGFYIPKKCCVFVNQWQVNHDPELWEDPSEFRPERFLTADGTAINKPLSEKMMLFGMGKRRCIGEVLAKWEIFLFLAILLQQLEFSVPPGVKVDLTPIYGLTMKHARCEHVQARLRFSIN
Also: in other assays of this panel Not Active means under 50% inhibition at 10 µM.

Row | SMILES | IC50 [1] | further results
1 | N[C@H](CSC(=S)NCc1ccccc1)C(=O)O | Not Active | 
2 | CC(=O)N[C@@H]1[C@H](Oc2c3cc4cc2Oc2ccc(cc2Cl)[C@@H](O[C@@H]2O[C@@H](CO)[C@@H](O)[C@H](O)[C@@H]2NC(C)=O)[C@@H]2NC(=O)[C@H](NC(=O)[C@@H]4NC(=O)[C@H]4NC(=O)[C@@H](Cc5ccc(c(Cl)c5)O3)NC(=O)[C@H](N)c3ccc(O)c(c3)Oc3cc(O)cc4c3)c3ccc(O)c(c3)-c3c(O[C@H]4O[C@H](CO)[C@@H](O)[C@@H](O)[C@@H]4O)cc(O)cc3[C@@H](C(=O)O)NC2=O)O[C@@H](CO)[C@@H](O)[C@@H]1O | Not Active | 
3 | Clc1ccc2c(c1)C(N1CCNCC1)=Nc1ccccc1O2 [AMOXAPINE] |  | IC50 [2]: 10 µM
4 | COc1cc2c(c(OC)c1OC)-c1ccc(OC)c(=O)cc1[C@@H](NC(C)=O)CC2 [COLCHICINE] | Not Active | 
5 | CC(C)NCC(O)COc1cccc2ccccc12 (stereo not drawn) [PROPRANOLOL] |  | IC50 [3]: 4 µM
6 | CO[C@H]1/C=C/O[C@@]2(C)Oc3c(C)c(O)c4c(c3C2=O)C2=NC3(CCN(CC(C)C)CC3)NC2=C(NC(=O)/C(C)=C\C=C\[C@H](C)[C@H](O)[C@@H](C)[C@@H](O)[C@@H](C)[C@H](OC(C)=O)[C@@H]1C)C4=O [RIFABUTIN] | Not Active | 
7 | COc1cc(NS(=O)(=O)c2ccc(N)cc2)nc(OC)n1 [SULFADIMETHOXINE] | Not Active | 
8 | C[C@@H](N)[C@H]1CC[C@H](C(=O)Nc2ccncc2)CC1 [Y-27632] | Not Active | 
